Laboratory results from ChEMBL document CHEMBL1144874, “Exploring structure-activity relationships of transition state analogues of human purine nucleoside phosphorylase” (J Med Chem, 2003).

Columns and labels:
[1] = molecular target: T1, Purine nucleoside phosphorylase (Homo sapiens, UniProt P00491)
T1 sequence (P00491 whole entry): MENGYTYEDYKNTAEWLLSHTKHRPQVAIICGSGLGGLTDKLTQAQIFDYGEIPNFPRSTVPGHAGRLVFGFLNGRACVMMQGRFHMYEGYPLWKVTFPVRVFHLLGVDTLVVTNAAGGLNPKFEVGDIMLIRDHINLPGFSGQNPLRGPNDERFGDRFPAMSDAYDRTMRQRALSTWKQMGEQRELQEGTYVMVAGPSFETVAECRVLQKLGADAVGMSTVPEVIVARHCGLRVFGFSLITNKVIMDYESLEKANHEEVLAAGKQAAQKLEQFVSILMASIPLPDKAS
Description: Inhibition of human purine nucleoside phosphorylase; Initial rate.

[2] = molecular target: T1, Purine nucleoside phosphorylase; remark: listed apart in the source
Description: Equilibrium dissociation constant determined against human purine nucleoside phosphorylase (PNP) after slow-onset inhibition

| Ki [1] [nM] | Compound | Ki [2] [nM] |
| --- | --- | --- |
| 0.25 | OC[C@H]1N[C@@H](c2c[nH]c3c(O)ncnc23)C[C@H]1O |  |
| 81 | Oc1ncnc2c([C@@H]3N[C@H](CF)[C@H](O)C3O)c[nH]c12 (stereo partly drawn) | 7 |
| 9.5 | OC[C@@H]1CC(O)[C@H](c2c[nH]c3c(O)ncnc23)N1 (stereo partly drawn) |  |
| 1.4 | OC[C@H]1N[C@@H](c2c[nH]c3c(O)ncnc23)C(F)(F)[C@H]1O |  |
| 415 | CCCN1[C@H](CO)[C@H](O)C(O)[C@@H]1c1c[nH]c2c(O)ncnc12 (stereo partly drawn) |  |
| 4.7 | Cn1cc([C@@H]2N[C@H](CO)[C@H](O)C2O)c2ncnc(O)c21 (stereo partly drawn) |  |
| 2.84 | OC[C@@H]1[C@H](O)C(O)CN1Cc1c[nH]c2c(O)ncnc12 (stereo partly drawn) |  |
| 12700 | OC[C@@H]1[C@H](O)C(O)CN1c1c[nH]c2c(O)ncnc12 (stereo partly drawn) |  |

Continued, molecule first:

| Compound | Ki [1] [nM] | Ki [2] [nM] |
| --- | --- | --- |
| Cc1nc2c(O)[nH]cnc-2c1[C@@H]1N[C@H](CO)[C@H](O)C1O (stereo partly drawn) | 10.1 |  |
| Nc1nc(O)c2[nH]cc([C@H]3C[C@@H](O)[C@@H](CO)N3)c2n1 | 0.22 |  |
| C[C@H]1N[C@@H](c2c[nH]c3c(=O)[nH]cnc23)C(O)[C@H]1O (stereo partly drawn) | 25 |  |
| Nc1[nH]cnc2c(C[C@@H]3N[C@H](CO)[C@H](O)C3O)cnc1-2 (stereo partly drawn) | > 30000 |  |
| OC[C@H]1N[C@@H](c2n[nH]c3c(O)ncnc23)[C@H](O)[C@@H]1O | 1.4 | 0.18 |
| COC1[C@@H](O)[C@@H](CO)N[C@H]1c1c[nH]c2c(=O)[nH]cnc12 (stereo partly drawn) | 5.9 |  |
| Nc1nc2c([C@@H]3N[C@H](CO)[C@@H](O)[C@H]3O)c[nH]c2c(=O)[nH]1 | 0.54 | 0.042 |
| OC[C@H]1N[C@@H](c2c(F)[nH]c3c(O)ncnc23)C(O)[C@H]1O (stereo partly drawn) | 5.6 | 0.39 |
| OC[C@H]1N[C@@H](Cc2c[nH]c3c(O)ncnc23)C(O)[C@H]1O (stereo partly drawn) | 250 |  |
| COc1[nH]cnc2c([C@@H]3N[C@H](CO)[C@H](O)C3O)cnc1-2 (stereo partly drawn) | 4.7 |  |
| OC[C@H]1N[C@@H](c2c[nH]c3c(S)ncnc23)C(O)[C@H]1O (stereo partly drawn) | 24.7 |  |
